≈ marks a conversion by molar mass, not a printed value. Where a SMILES comes first, the peptide text is derived from it. Bridges are numbered along the chain shown (N, C = ends). [ ]: non-standard residue; d: D form. The star is where a group is joined. Ileψ(thiazoline)Cys = CC[C@H](C)[C@H](N)C1=N[C@H](C(=O)*)CS1; dOrn = NCCC[C@@H](N)C(=O)O
How the values were obtained:
[1] = test system: Mycobacterium smegmatis ATCC 9341; experiment: microbe, parasite or virus in culture; type: cell-based; settings: ATCC 9341, 18 h
Method: (§1) This activity in terms of minimal inhibitory concentration (MIC) was determined by dilution and disk diffusion methods as per the Clinical and Laboratory Standards Institute (CLSI) guidelines for antimicrobial susceptibility testing. The examination of bacteria was conducted after incubation for 18 h at 37°C following inoculation of various test microorganisms, including methicillin-resistant Staphylococcus aureus (MRSA), vancomycin-resistant S. aureus (VRSA), or vancomycin-resistant enterococci (VRE). Control antibiotics were bacitracin and vancomycin.

[2] = test system: Listeria monocytogenes KCTC3569; experiment: microbe, parasite or virus in culture; type: cell-based; settings: KCTC3569, 18 h
Method: as §1

[3] = test system: Salmonella typhimurium KCTC 1925; experiment: microbe, parasite or virus in culture; type: cell-based
Method: as §1

[4] = test system: Micrococcus luteus ATCC 9341; experiment: microbe, parasite or virus in culture; type: cell-based
Method: as §1

[5] = test system: Alcaligenes faecalis ATCC 1004; experiment: microbe, parasite or virus in culture; type: cell-based
Method: as §1

VRSA = experiment: microbe, parasite or virus in culture; type: cell-based, S. aureus; settings: 18 h
Method: as §1

VRE5 = experiment: organism not typed; type: cell-based, enterococci; settings: 18 h
Method: as §1

VRE89 = experiment: organism not typed; type: cell-based, enterococci; settings: 18 h
Method: as §1

VRE3 = experiment: organism not typed; type: cell-based, enterococci; settings: 18 h
Method: as §1

VRE4 = experiment: organism not typed; type: cell-based, enterococci; settings: 18 h
Method: as §1

VRE82 = experiment: organism not typed; type: cell-based, enterococci; settings: 18 h
Method: as §1

VRE6 = experiment: organism not typed; type: cell-based, enterococci; settings: 18 h
Method: as §1

MRSA 5–3 = experiment: microbe, parasite or virus in culture; type: cell-based, Staphylococcus aureus
Method: as §1

MRSA 4–5 = experiment: microbe, parasite or virus in culture; type: cell-based, Staphylococcus aureus
Method: as §1

MRSA U4 = experiment: microbe, parasite or virus in culture; type: cell-based, Staphylococcus aureus
Method: as §1

MRSA 639E = experiment: microbe, parasite or virus in culture; type: cell-based, Staphylococcus aureus; settings: 18 h
Method: as §1

MRSA S3 = experiment: microbe, parasite or virus in culture; type: cell-based, Staphylococcus aureus
Method: as §1

MSRA S1 = experiment: microbe, parasite or virus in culture; type: cell-based, Staphylococcus aureus; settings: 18 h
Method: as §1

MRSA P3 = experiment: microbe, parasite or virus in culture; type: cell-based, Staphylococcus aureus
Method: as §1

[6] = test system: Pseudomonas aeruginosa KCTC 1637; type: cell-based; settings: KCTC 1637, 18 h
Method: as §1

[7] = test system: Staphylococcus aureus KCTC 1928; type: cell-based; settings: KCTC 1928, 18 h
Method: as §1

[8] = test system: Bacillus subtilis ATCC 6633; type: cell-based; settings: ATCC 6633, 18 h
Method: as §1

[9] = test system: Enterococcus faecalis ATCC 29212; type: cell-based; settings: ATCC 29212, 18 h
Method: as §1

[10] = test system: Escherichia coli KCTC 1923; type: cell-based; settings: KCTC 1923, 18 h
Method: as §1

VRE 2 = experiment: microbe, parasite or virus in culture; type: cell-based, enterococci; settings: 18 h
Method: as §1

RAW 264.7 cells = experiment: Cell viability, MTT assay; type: cell-based, mouse; settings: 5–100 μg/mL, 24 h; three independent experiments in triplicate
Method: Cell viability was assessed using the 3-(4,5-dimethylthiazol-2-yl)-2,5-diphenyltetrazolium bromide (MTT) assay as described previously by Choi et al. (2016). For the cell viability assay, RAW 264.7 cells were seeded into a 96-well flat bottom microplate at a density of 2 × 10^4 cells per well and incubated at 37°C for 1 h. […] After 24 h of incubation, the medium was removed and wash in PBS once followed by 100 μl of MTT (5 mg/ml in PBS) solution was added to each well, and the plate was incubated for another 1 h. Then 100 μl of DMSO (100%) was added to dissolve the formazan crystals. Absorbance values were then measured at 450 nm using a microplate reader (Victor3, PerkinElmer).

[11] = test system: Clostridium difficile KCTC2251; experiment: Antimicrobial activity against anaerobic pathogens (mm); type: cell-based; settings: 48 h, mean ± SD, n = 3
[12] = test system: Propionibacterium acnes KCTC5933; experiment: as above; type: cell-based; settings: 48 h, mean ± SD, n = 3
Mycobacterium smegmatis = experiment: microbe, parasite or virus in culture; type: cell-based; settings: Mycolicibacterium smegmatis, ATCC9341, 18 h
Method: as §1

[13] = Staphylococcus aureus, MRSA, 18 h

Q: Which results are given for CC[C@H](C)[C@H](N)C1=N[C@H](C(=O)N[C@@H](CC(C)C)C(=O)N[C@H](CCC(=O)O)C(=O)N[C@H](C(=O)N[C@H]2CCCCNC(=O)[C@H](CC(N)=O)NC(=O)[C@@H](CC(=O)O)NC(=O)[C@H](Cc3cnc[nH]3)NC(=O)[C@@H](Cc3ccccc3)NC(=O)[C@H]([C@@H](C)CC)NC(=O)[C@@H](CCCN)NC2=O)[C@@H](C)CC)CS1 [Bacitracin] ({Ileψ(thiazoline)Cys}-L[dE]IK[dOrn]I[dF]H[dD]N; lactam 4-C (inferred); N-terminus assumed)?
A: MIC [1]: >80 µg/mL; MIC [2]: 0.3125 µg/mL (≈ 0.22 µM); MIC ([3]; KCTC 1925, 18 h): >80 µg/mL; MIC ([4]; ATCC 9341, 18 h): >80 µg/mL; MIC ([5]; ATCC 1004, 18 h): >80 µg/mL; MIC (VRSA): >80 µg/mL; MIC (VRE5): 1.25 µg/mL (≈ 0.879 µM); MIC (VRE89): 40 µg/mL (≈ 28.1 µM); MIC (VRE3): 20 µg/mL (≈ 14.1 µM); MIC (VRE4): 5 µg/mL (≈ 3.51 µM); MIC (VRE82): 40 µg/mL (≈ 28.1 µM); MIC (VRE6): >80 µg/mL; MIC (MRSA 5–3; 5–3, 18 h): 1.25 µg/mL (≈ 0.879 µM); MIC (MRSA 4–5; 4–5, 18 h): 1.25 µg/mL (≈ 0.879 µM); MIC (MRSA U4; U4, 18 h): 1.25 µg/mL (≈ 0.879 µM); MIC (MRSA 639E; 639E): 40 µg/mL (≈ 28.1 µM); MIC (MRSA S3; S3, 18 h): 1.25 µg/mL (≈ 0.879 µM); MIC (MSRA S1): 1.25 µg/mL (≈ 0.879 µM); MIC (MRSA P3; P3, 18 h): 1.25 µg/mL (≈ 0.879 µM); MIC [6]: >80 µg/mL; MIC [7]: 40 µg/mL (≈ 28.1 µM); MIC [8]: 40 µg/mL (≈ 28.1 µM); MIC [9]: 5 µg/mL (≈ 3.51 µM); MIC [10]: >80 µg/mL; MIC (VRE 2): 0.3125 µg/mL (≈ 0.22 µM)

Q: For CC[C@H](C)[C@H](N)C1=N[C@H](C(=O)N[C@@H](CC(C)C)C(=O)N[C@H](CCC(=O)O)C(=O)N[C@H](C(=O)N[C@H]2CCCCNC(=O)[C@H](CC(N)=O)NC(=O)[C@@H](CC(=O)O)NC(=O)[C@H](Cc3cnc[nH]3)NC(=O)[C@@H](Cc3ccccc3)NC(=O)[C@H]([C@@H](C)CC)NC(=O)[C@@H](CCCN)NC2=O)[C@@H](C)CC)CS1 [CSP32] ({Ileψ(thiazoline)Cys}-L[dE]IK[dOrn]I[dF]H[dD]N; lactam 4-C), which “Cytotoxicity toward RAW 264.7 cells (MTT)” value (RAW 264.7 cells) is on record?
A: did not exert cytotoxicity

Q: Which results are given for CC[C@@]1([C@@H]2O[C@@H]([C@H]3O[C@@](O)(CO)[C@H](C)C[C@@H]3C)C[C@@H]2C)CC[C@H]([C@]2(C)CC[C@]3(C[C@H](O)[C@@H](C)[C@@H]([C@@H](C)[C@@H](OC)[C@H](C)C(=O)O)O3)O2)O1 [Monensin]?
A: Antimicrobial activity, Clostridium difficile (mm) ([11]; concentration 0.125 mg/mL): 13.17±0.29 mm; Antimicrobial activity, Clostridium difficile (mm) ([11]; concentration 0.25 mg/mL): 13.00±0.50 mm; Antimicrobial activity, Clostridium difficile (mm) ([11]; concentration 0.5 mg/mL): 15.17±0.29 mm; Antimicrobial activity, Clostridium difficile (mm) ([11]; concentration 1 mg/mL): 17.33±0.29 mm; Antimicrobial activity, Propionibacterium acnes (mm) ([12]; concentration 0.125 mg/mL): 13.00±0.50 mm; Antimicrobial activity, Propionibacterium acnes (mm) ([12]; concentration 0.25 mg/mL): 15.17±0.29 mm; Antimicrobial activity, Propionibacterium acnes (mm) ([12]; concentration 0.5 mg/mL): 17.33±0.58 mm; Antimicrobial activity, Propionibacterium acnes (mm) ([12]; concentration 1 mg/mL): 17.17±0.29 mm

Q: Which results are given for CN[C@H](CC(C)C)C(=O)N[C@H]1C(=O)N[C@@H](CC(N)=O)C(=O)N[C@H]2C(=O)N[C@H]3C(=O)N[C@H](C(=O)N[C@H](C(=O)O)c4cc(O)cc(O)c4-c4cc3ccc4O)[C@H](O)c3ccc(c(Cl)c3)Oc3cc2cc(c3O[C@@H]2O[C@H](CO)[C@@H](O)[C@H](O)[C@H]2O[C@H]2C[C@](C)(N)[C@H](O)[C@H](C)O2)Oc2ccc(cc2Cl)[C@H]1O [Vancomycin]?
A: MIC ([2]; Listeria monocytogenes): 0.156 µg/mL (≈ 0.108 µM); MIC (Mycobacterium smegmatis): 0.312 µg/mL (≈ 0.216 µM); MIC ([3]; Salmonella enterica, 18 h): > 80 µg/mL; MIC ([4]; Micrococcus luteus, ATCC9341, 18 h): 0.156 µg/mL (≈ 0.108 µM); MIC ([5]; Alcaligenes faecalis, ATCC1004, 18 h): > 80 µg/mL; MIC (VRSA; Staphylococcus aureus, VRSA): > 80 µg/mL; MIC (VRE5): > 80 µg/mL; MIC (VRE89): > 80 µg/mL; MIC (VRE3): > 80 µg/mL; MIC (VRE4): > 80 µg/mL; MIC (VRE82): > 80 µg/mL; MIC (VRE6): > 80 µg/mL; MIC (MRSA 5–3; [13]): 0.312 µg/mL (≈ 0.216 µM); MIC (MRSA 4–5; [13]): 0.312 µg/mL (≈ 0.216 µM); MIC (MRSA U4; [13]): 0.312 µg/mL (≈ 0.216 µM); MIC (MRSA 639E; Staphylococcus aureus, MRSA): 0.312 µg/mL (≈ 0.216 µM); MIC (MRSA S3; [13]): 0.312 µg/mL (≈ 0.216 µM); MIC (MSRA S1; Staphylococcus aureus): 0.625 µg/mL (≈ 0.431 µM); MIC (MRSA P3; [13]): 0.625 µg/mL (≈ 0.431 µM); MIC (VRE 2; Enterococcus, VRE): > 80 µg/mL
